This passage reports IC50 results from patent publication EP1534716B1, “HETEROBICYCLIC PYRAZOLE DERIVATIVES AS KINASE INHIBITORS” (priority 2002, dated 2004).

For orientation: IC50 means the concentration that gives 50% inhibition. A lower IC50 goes with higher potency.

Each structure is given as a SMILES string. Structures can show the parent of a compound that is named as a salt.

What all share (type): biochemical
Experiment [1] deals with T1, Aurora-2 (Homo sapiens, UniProt O14965).
T1 sequence (O14965 1-403): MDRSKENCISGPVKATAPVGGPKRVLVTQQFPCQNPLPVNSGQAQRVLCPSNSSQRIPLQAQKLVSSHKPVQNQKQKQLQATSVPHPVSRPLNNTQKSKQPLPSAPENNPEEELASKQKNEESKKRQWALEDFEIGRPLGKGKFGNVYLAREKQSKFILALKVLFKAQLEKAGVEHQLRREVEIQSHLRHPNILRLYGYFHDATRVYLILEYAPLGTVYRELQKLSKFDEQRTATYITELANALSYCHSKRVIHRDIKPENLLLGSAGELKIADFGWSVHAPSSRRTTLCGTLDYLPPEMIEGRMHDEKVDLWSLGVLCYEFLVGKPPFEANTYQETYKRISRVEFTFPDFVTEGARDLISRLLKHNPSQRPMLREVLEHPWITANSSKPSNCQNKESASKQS
As to the kind of experiment: Inhibition assay of Aurora-2 activity (SPA). As to conditions: 10 µM ATP, 60 minutes at room temperature. As to the method: (§1) The inhibiting activity of putative cdk/cyclin inhibitors and the potency of selected compounds is determined through a method of assay based on the use of the SPA technology (Amersham Pharmacia Biotech).
(§2) The assay consists of the transfer of radioactivity labelled phosphate moiety by the kinase to a biotinylated substrate. The resulting 33P-labelled biotinylated product is allowed to bind to streptavidin-coated SPA beads (biotin capacity 130 pmol/mg), and light emitted was measured in a scintillation counter.
(§3) Experimental data were analyzed by the computer program GraphPad Prizm using the four parameter logistic equation: [formula] where x is the logarithm of the inhibitor concentration, y is the response; y starts at bottom and goes to top with a sigmoid shape.
Inhibition assay of Aurora-2 activity
After 60 minutes at room temperature incubation, reaction was stopped and biotinylated peptide captured by adding 100 µl of bead suspension.
Stratification: 100 µl of CsC12 5 M were added to each well and let stand 4 hour before radioactivity was counted in the Top-Count instrument.
IC50 determination: see above

The target of experiment [2] is cdk2/Cyclin A (Homo sapiens, UniProt P24941). As to the kind of experiment: Inhibition assay of cdk2/Cyclin A activity (SPA). As to conditions: 10 µM ATP, 60 min at room temperature. The protocol: as §1, §2
Inhibition assay of cdk2/Cyclin A activity
Kinase reaction: 4 µM in house biotinylated histone H1 (Sigma # H-5505) substrate, 10 µM ATP (0.1 microCi P^33γ-ATP), 1.1 nM Cyclin A/CDK2 complex, inhibitor in a final volume of 30 µl buffer (TRIS HCl 10 mM pH 7.5, MgCl2 10 mM, DTT 7.5 mM + 0.2 mg/ml BSA) were added to each well of a 96 U bottom. After incubation for 60 min at room temperature, the reaction was stopped by addition of 100 µl PBS buffer containing 32 mM EDTA, 500 µM cold ATP, 0.1% Triton X100 and 10mg/ml streptavidin coated SPA beads. After 20 min incubation, 110 µL of suspension were withdrawn and transferred into 96-well OPTIPLATEs containing 100 µl of 5M CsCl. After 4 hours, the plates were read for 2 min in a Packard TOP-Count radioactivity reader.
as §3

Experiment [3] has as its target PAK4 (Homo sapiens, UniProt O96013). As to the kind of experiment: PAK4 inhibition.
For experiment [4], the target named is Cdc7/dbf4 (Homo sapiens, UniProt O00311). As to the kind of experiment: Inhibition assay of Cdc7/dbf4 activity (SPA). As to conditions: 2 µM ATP, 60 minutes at 37°C. The protocol:
Inhibition assay of Cdc7/dbf4 activity
The inhibition assay of Cdc7/dbf4 activity is performed according to the following protocol.
The Biotin-MCM2 substrate is trans-phosphorylated by the Cdc7/Dbf4 complex in the presence of ATP traced with γ^33-ATP. The phosphorylated Biotin-MCM2 substrate is then captured by Streptavidin-coated SPA beads and the extent of phosphorylation evaluated by β counting.
The inhibition assay of Cdc7/dbf4 activity was performed in 96 wells plate according to the following protocol.
To each well of the plate were added: • 10 µl substrate (biotinylated MCM2, 6 µM final concentration) • 10 µl enzyme (Cdc7/Dbf4, 17.9 nM final concentration) • 10 µl test compound (12 increasing concentrations in the nM to µM range to generate a dose-response curve) • 10 µl of a mixture of cold ATP (2 µM final concentration) and radioactive ATP (1/5000 molar ratio with cold ATP) was then used to start the reaction which was allowed to take place at 37°C.
Substrate, enzyme and ATP were diluted in 50 mM HEPES pH 7.9 containing 15 mM MgCl2, 2 mM DTT, 3 µM NaVO3, 2mM glycerophosphate and 0.2mg/ml BSA. The solvent for test compounds also contained 10% DMSO.
After incubation for 60 minutes, the reaction was stopped by adding to each well 100 µl of PBS pH 7.4 containing 50 mM EDTA, 1 mM cold ATP, 0.1% Triton X100 and 10 mg/ml streptavidin coated SPA beads.
After 20 min incubation, 110 µL of suspension were withdrawn and transferred into 96-well OPTIPLATEs containing 100 µl of 5M CsCl. After 4 hours, the plates were read for 2 min in a Packard TOP-Count radioactivity reader.
IC50 determination: see above.

Chain of PAK4 (O96013 whole entry, species assumed): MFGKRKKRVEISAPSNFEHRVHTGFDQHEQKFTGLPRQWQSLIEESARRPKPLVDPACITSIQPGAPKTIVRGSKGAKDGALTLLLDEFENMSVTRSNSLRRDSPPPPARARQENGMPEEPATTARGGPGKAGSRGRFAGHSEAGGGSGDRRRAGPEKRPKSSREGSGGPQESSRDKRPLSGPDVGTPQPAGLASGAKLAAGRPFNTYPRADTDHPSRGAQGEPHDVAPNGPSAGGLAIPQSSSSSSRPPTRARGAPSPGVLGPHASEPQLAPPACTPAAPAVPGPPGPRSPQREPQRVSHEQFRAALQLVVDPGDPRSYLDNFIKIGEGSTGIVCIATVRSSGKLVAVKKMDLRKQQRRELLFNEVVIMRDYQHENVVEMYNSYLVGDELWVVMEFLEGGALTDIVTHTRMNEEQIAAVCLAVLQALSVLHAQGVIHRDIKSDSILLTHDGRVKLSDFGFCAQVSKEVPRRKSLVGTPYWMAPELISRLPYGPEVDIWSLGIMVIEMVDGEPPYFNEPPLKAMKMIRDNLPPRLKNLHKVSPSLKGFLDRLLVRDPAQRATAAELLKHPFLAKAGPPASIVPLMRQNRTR
Chain of Cdc7/dbf4 (O00311 whole entry, species assumed): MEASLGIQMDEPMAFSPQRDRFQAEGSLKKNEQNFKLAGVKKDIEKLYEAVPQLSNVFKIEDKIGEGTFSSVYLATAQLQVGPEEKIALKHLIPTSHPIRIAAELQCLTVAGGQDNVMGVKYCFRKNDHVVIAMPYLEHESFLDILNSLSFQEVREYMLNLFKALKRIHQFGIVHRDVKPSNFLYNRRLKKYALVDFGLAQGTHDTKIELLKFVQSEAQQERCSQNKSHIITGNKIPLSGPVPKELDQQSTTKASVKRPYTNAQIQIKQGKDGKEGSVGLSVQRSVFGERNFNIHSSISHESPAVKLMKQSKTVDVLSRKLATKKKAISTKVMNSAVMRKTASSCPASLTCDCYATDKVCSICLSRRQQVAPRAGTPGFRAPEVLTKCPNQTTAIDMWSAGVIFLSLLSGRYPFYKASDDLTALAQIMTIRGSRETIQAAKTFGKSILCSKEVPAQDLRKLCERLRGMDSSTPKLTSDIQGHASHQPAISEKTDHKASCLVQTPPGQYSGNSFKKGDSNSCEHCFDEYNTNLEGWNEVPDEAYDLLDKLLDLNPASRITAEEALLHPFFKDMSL
Chain of Cdc7/dbf4 (Q9UBU7 whole entry partner, species assumed): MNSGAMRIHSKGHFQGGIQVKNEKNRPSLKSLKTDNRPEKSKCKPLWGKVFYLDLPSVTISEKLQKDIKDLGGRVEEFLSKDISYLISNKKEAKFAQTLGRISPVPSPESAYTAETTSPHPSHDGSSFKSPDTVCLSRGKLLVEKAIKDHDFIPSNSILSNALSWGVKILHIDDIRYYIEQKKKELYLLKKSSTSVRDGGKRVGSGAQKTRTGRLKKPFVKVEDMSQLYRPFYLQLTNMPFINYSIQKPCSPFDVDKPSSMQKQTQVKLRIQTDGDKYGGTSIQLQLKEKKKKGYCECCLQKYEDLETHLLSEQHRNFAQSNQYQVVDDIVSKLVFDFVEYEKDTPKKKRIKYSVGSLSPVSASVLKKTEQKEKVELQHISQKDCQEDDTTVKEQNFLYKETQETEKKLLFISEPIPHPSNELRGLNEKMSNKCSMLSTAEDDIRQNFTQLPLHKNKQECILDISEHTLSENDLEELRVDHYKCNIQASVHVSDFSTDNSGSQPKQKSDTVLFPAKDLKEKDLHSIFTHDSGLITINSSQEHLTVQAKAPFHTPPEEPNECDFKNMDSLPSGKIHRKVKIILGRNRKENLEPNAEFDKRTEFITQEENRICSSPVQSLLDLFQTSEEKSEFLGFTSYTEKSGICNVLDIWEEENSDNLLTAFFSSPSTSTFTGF

As for `CN1CCN(c2ccc(C(=O)Nc3n[nH]c4cc(C(=O)NCc5ccco5)sc34)cc2)CC1` [Compound 114, N-(2-furylmethyl)-3-{[4-(4-methylpiperazin-1-yl)benzoyl]amino}-1H-thieno[3,2-c]pyrazole-5-carboxamide], the IC50 was under 100 nM in experiment [1], under 500 nM in experiment [2], under 500 nM in experiment [3] and under 1000 nM in experiment [4].
With `CCC(NC(=O)c1cc2[nH]nc(NC(=O)c3ccc(N4CCOCC4)cc3)c2o1)c1ccccc1` (stereo not shown) [Compound 164, 3-[(4-morpholin-4-ylbenzoyl)amino]-N-[-1-phenylpropyl]-1H-furo[3,2-c]pyrazole-5-carboxamide], the IC50 in experiment [1] was under 100 nM; in experiment [2] it was under 500 nM; in experiment [3] it was under 500 nM.
On to `COC(=O)c1cc2[nH]nc(NC(=O)c3ccc(N4CCOCC4)cc3)c2s1` [Compound 52, methyl 3-[(4-morpholin-4-ylbenzoyl)amino]-1H-thieno[3,2-c]pyrazole-5-carboxylate], for which the IC50 in experiment [1] was under 100 nM; in experiment [3], under 500 nM; in experiment [4] it was under 1000 nM.
Consider `CN1CCN(c2ccc(C(=O)Nc3n[nH]c4cc(C(=O)NCc5ccc(F)cc5F)sc34)cc2)CC1` [Compound 102, N-(2,4-difluorobenzyl)-3-{[4-(4-methylpiperazin-1-yl)benzoyl]amino}-1H-thieno[3,2-c]pyrazole-5-carboxamide], for which the figures for the IC50 in experiment [1], in experiment [3] and in experiment [4] were under 100 nM, under 500 nM and under 1000 nM, respectively.
For the compound `O=C(Nc1n[nH]c2cc(C(=O)O)oc12)c1ccc(N2CCOCC2)cc1` [Compound 161, 3-[(4-morpholin-4-ylbenzoyl)amino]-1H-furo[3,2-c]pyrazole-5-carboxylic acid], the IC50 in experiment [1] is under 100 nM; in experiment [2], under 500 nM; in experiment [4] it was under 1000 nM.
In the case of `CN1CCN(c2ccc(C(=O)Nc3n[nH]c4cc(C(=O)NCc5ccccc5F)sc34)cc2)CC1` [Compound 101, N-(2-fluorobenzyl)-3-{[4-(4-methylpiperazin-1-yl)benzoyl]amino}-1H-thieno[3,2-c]pyrazole-5-carboxamide], the IC50 in experiment [1] was under 100 nM; in experiment [3], under 500 nM; in experiment [4] it was under 1000 nM.
Turning to `CN1CCN(c2ccc(C(=O)Nc3n[nH]c4cc(C(=O)NCc5cccn5C)sc34)cc2)CC1` [Compound 123, 3-{[4-(4-methylpiperazin-1-yl)benzoyl]amino}-N-[(1-methyl-1H-pyrrol-2-yl)methyl]-1H-thieno[3,2-c]pyrazole-5-carboxamide], the values for the 50% inhibitory concentration (IC50) in experiment [1] and in experiment [4] were under 100 nM and under 1000 nM, respectively.
Consider `CCNC(=O)c1cc2[nH]nc(NC(=O)c3ccc(N4CCN(C)CC4)cc3)c2s1` [Compound 93, N-ethyl-3-{[4-(4-methylpiperazin-1-yl)benzoyl]amino}-1H-thieno[3,2-c]pyrazole-5-carboxamide dihydrochloride], for which the results for the IC50 in experiment [2], in experiment [3] and in experiment [4] were under 500 nM, under 500 nM and under 1000 nM, respectively.
Consider `O=C(Nc1n[nH]c2cc(C(=O)O)sc12)c1ccc(N2CCOCC2)cc1` [Compound 57, 3-[(4-morpholin-4-ylbenzoyl)amino]-1H-thieno[3,2-c]pyrazole-5-carboxylic acid], for which the concentration for half-maximal inhibition (IC50) was under 100 nM in experiment [1], under 500 nM in experiment [2] and under 1000 nM in experiment [4].
`CN1CCN(c2ccc(C(=O)Nc3n[nH]c4cc(C(=O)NCc5ccoc5)sc34)cc2)CC1` [Compound 124, N-(3-furylmethyl)-3-{[4-(4-methylpiperazin-1-yl)benzoyl]amino}-1H-thieno[3,2-c]pyrazole-5-carboxamide]: the half-inhibitory concentration (IC50) in experiment [1] is under 100 nM; in experiment [2], under 500 nM; in experiment [4], under 1000 nM.
On to `CN1CCN(c2ccc(C(=O)Nc3n[nH]c4cc(C(=O)O)oc34)cc2)CC1` [Compound 162, 3-{[4-(4-methylpiperazin-1-yl)benzoyl]amino}-1H-furo[3,2-c]pyrazole-5-carboxylic acid], for which the half-inhibitory concentration (IC50) in experiment [1] was under 100 nM; in experiment [4] it was under 1000 nM.
In the case of `CCC(NC(=O)c1cc2[nH]nc(NC(=O)c3ccc(N4CCN(C)CC4)cc3)c2o1)c1ccccc1` (stereo not shown) [Compound 165, 3-{[4-(4-methylpiperazin-1-yl)benzoyl]amino}-N-[1-phenylpropyl]-1H-furo[3,2-c]pyrazole-5-carboxamide], the values for the IC50 in experiment [1], in experiment [2] and in experiment [4] were under 100 nM, under 500 nM and under 1000 nM, respectively.
Take `O=C(Nc1n[nH]c2cc(C(=O)NCc3ccc(F)cc3)sc12)c1ccc(N2CCOCC2)cc1` [Compound 133, N-(4-fluorobenzyl)-3-[(4-morpholin-4-ylbenzoyl)amino]-1H-thieno[3,2-c]pyrazole-5-carboxamide]: the results for the IC50 in experiment [1] and in experiment [3] were under 100 nM and under 500 nM, respectively.
Take `O=C(Nc1n[nH]c2cc(C(=O)O)oc12)c1ccc(F)cc1` [Compound 163, 3-[(4-fluorobenzoyl)amino]-1H-furo[3,2-c]pyrazole-5-carboxylic acid]: the IC50 in experiment [1] was under 100 nM; in experiment [3] it was under 500 nM.
Take `CN1CCN(c2ccc(C(=O)Nc3n[nH]c4cc(C(=O)NCc5ccc(F)cc5)sc34)cc2)CC1` [Compound 95, N-(4-fluorobenzyl)-3-{[4-(4-methylpiperazin-1-yl)benzoyl]amino}-1H-thieno[3,2-c]pyrazole-5-carboxamide]: the concentration for half-maximal inhibition (IC50) was under 100 nM in experiment [1], under 500 nM in experiment [3] and under 1000 nM in experiment [4].
For `COC[C@@H](NC(=O)c1cc2[nH]nc(NC(=O)c3ccc(N4CCOCC4)cc3)c2s1)c1ccccc1` [Compound 129, N-[(1S)-2-methoxy-1-phenylethyl]-3-[(4-morpholin-4-ylbenzoyl)amino]-1H-thieno[3,2-c]pyrazole-5-carboxamide], the results for the IC50 in experiment [1] and in experiment [3] were under 100 nM and under 500 nM, respectively.
Take `CN1CCN(c2ccc(C(=O)Nc3n[nH]c4cc(C(=O)NCc5cccs5)sc34)cc2)CC1` [Compound 115, 3-{[4-(4-methylpiperazin-1-yl)benzoyl]amino}-N-(thien-2-ylmethyl)-1H-thieno[3,2-c]pyrazole-5-carboxamide]: the IC50 is under 100 nM in experiment [1], under 500 nM in experiment [3] and under 1000 nM in experiment [4].
`O=C(Nc1n[nH]c2cc(C(=O)NCc3cccc(F)c3)sc12)c1ccc(N2CCOCC2)cc1` [Compound 132, N-(3-fluorobenzyl)-3-[(4-morpholin-4-ylbenzoyl)amino]-1H-thieno[3,2-c]pyrazole-5-carboxamide]: the half-inhibitory concentration (IC50) in experiment [1] was under 100 nM; in experiment [3], under 500 nM.
